The term IC50 denotes the midpoint of a concentration-inhibition curve. Read a low IC50 as inhibition by little substance.

The target of the assay is Aβ42 (amyloid β-protein 42) (Homo sapiens, UniProt P05067). The assay is described as follows: ThT fluorescence fibrillogenesis assay. In kind it is biochemical.
Chain of Aβ42 (amyloid β-protein 42) (P05067 672-713): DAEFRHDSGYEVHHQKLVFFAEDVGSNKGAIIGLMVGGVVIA

The compound `O=C(O[C@@H]1Cc2c(O)cc(O)cc2O[C@@H]1c1cc(O)c(O)c(O)c1)c1cc(O)c(O)c(O)c1` [EGCG] displayed an IC50 of 2400 ± 400 nM. The result for `Oc1ccc2c(c1)OC[C@]1(O)Cc3cc(O)c(O)cc3[C@H]21` [brazilin] reads 1500 ± 300 nM.

The values are drawn from paper PMC4303869 (Scientific Reports, 2015).
